Data taken from paper PMC8311463, “Cyclotides Isolated From Violet Plants of Cameroon Are Inhibitors of Human Prolyl Oligopeptidase” (Frontiers in Pharmacology, 2021).
One block for each compound: values may come before it. Bridge positions count the residues as written; N and C are the ends. Peptide text beside a SMILES is read from it. * marks the point of attachment. AMC = Cc1cc(=O)oc2cc(N*)ccc12; Cbz = O=C(OCc1ccccc1)*

Key:
POP [1] = conditions: clinical phase 1 and 2; ref López et al., 2013; cited from earlier work
Source text: Ethnomedicinal studies have shown beneficial effects of cyclotide expressing plants in few disease conditions with relationship to POP. For instance, African traditional medicine describes the therapeutic application of Rinorea dentata (P. Beauv.) Kuntze from the Violaceae toward neurodegenerative diseases ([Sonibare and Ayoola, 2015]). […] To make use of these beneficial effects it will be necessary to further investigate P ...

POP [2] = system: POP; parameters: method as in 3 sources, ref Hellinger et al., 2015a ||| ref Tarrago et al., 2007; Tarragó et al., 2008; Cahlíková et al., 2015 ||| ref Retzl et al., 2020; conditions: cited from earlier work; for POP inhibition (in words): alkaloids and flavonoids, ref Tarrago et al., 2007, Tarragó et al., 2008, Cahlíková et al., 2015
Protocol: Previous phytochemical studies identified natural products as inhibitors for POP such as small molecule entities and natural peptides. […] A sequence logo was prepared to compare the amino acid positions for conserved residues or to identify variable positions (Figure 7C).

human POP [3] = target: T1, human POP (Homo sapiens, UniProt P48147); assay: POP inhibition assay, Z-Gly-Pro-amino-coumarin substrate; format: biochemical
T1 construct: the full-length untagged protein was obtained after site-specific cleavage; GST (N, cleaved yes); made in house; host or cells: Escherichia coli BL21 (D3 [sic] strain)
T1 sequence (P48147 1-710): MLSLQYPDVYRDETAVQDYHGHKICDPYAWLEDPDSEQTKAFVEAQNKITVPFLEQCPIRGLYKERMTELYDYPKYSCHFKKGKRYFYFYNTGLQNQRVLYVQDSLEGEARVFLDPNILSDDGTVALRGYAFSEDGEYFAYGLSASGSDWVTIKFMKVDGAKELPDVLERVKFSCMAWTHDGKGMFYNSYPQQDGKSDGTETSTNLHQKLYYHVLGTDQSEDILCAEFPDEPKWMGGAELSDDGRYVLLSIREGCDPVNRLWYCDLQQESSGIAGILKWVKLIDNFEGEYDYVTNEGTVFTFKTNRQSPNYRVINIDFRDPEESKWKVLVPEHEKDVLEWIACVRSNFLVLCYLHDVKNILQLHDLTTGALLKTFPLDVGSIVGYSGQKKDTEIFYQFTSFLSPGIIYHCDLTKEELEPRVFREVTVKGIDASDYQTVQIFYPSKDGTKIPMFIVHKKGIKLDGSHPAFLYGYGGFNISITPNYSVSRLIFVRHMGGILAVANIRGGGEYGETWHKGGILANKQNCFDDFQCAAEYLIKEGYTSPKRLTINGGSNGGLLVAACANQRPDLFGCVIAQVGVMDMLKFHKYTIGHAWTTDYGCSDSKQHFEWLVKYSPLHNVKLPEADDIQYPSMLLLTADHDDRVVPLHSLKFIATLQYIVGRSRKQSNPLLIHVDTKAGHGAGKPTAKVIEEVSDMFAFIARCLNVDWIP
Protocol: The POP inhibition assays were carried out similarly as recently described ([Hellinger et al., 2015a]; [Retzl et al., 2020]) using a bacterial expressed POP enzyme. […] For enzyme inhibition assays human POP (50 ng/well) was incubated in assay buffer (20 mM Hepes pH 7.2, 150 mM NaCl, 1 mM EDTA, 0.5 mM DTT) together with substrate Z-Gly-Pro-amino-coumarin (final concentration 45 µM) at 37°C for 60 min. […] All experiments were performed in 96-microtiter black bottom plates. Concentration-response inhibition assays were performed with [S] = K m, which is considered a suitable condition for evaluating samples of unknown inhibition mode (e.g. competitive, noncompetitive or uncompetitive reversible inhibition). The protease activity was quantified as fluorescence from the proteolytically cleaved amino-coumarin fluorophore with excitation 380 nm and emission 420 nm on a Biotek Synergy H4 plate reader. The fluorogenic substrate provide elevated fluorescence by the delocalization of electrons after the amide bond cleavage and release of the 7 amino coumarin moiety. All samples for protease inhibition assays were prepared in ddH2O. Concentration-dependent inhibition studies were performed with the peptide enriched extracts (2–1,000 μg/ml) or isolated peptides (0.1–60 µM). For bioassay-guided isolation HPLC fractions were assayed for POP inhibition with three concentrations (4, 20 and 100 μg/ml). Kinetic measurements were carried out to obtain initial velocities in the presence of sample (vi) or enzyme alone (vo) ([Arnison et al., 2013]). The percent remaining POP activity was calculated as I = (vi/vo)*100. A substrate background was used for correction of all measurements. KYP-2047, a specific POP inhibitor, was used as positive control in the assays. […] Four parameter non-linear regression curve fits were obtained using GraphPad Prism v5.0 fitting algorithms with equation Y=Bottom + (Top-Bottom)/(1 + 10^((LogIC50-X)*Hill Slope)) in which X is the log dose and Y the measured response.

human POP [4] = target: T1, human POP; assay: POP enzyme kinetics (Michaelis-Menten) with Z-Gly-Pro-amino-coumarin; format: biochemical; conditions: substrate Z-Gly-Pro-amino-coumarin, optimized assay buffer 20 mM Hepes pH 7.2, 150 mM NaCl, 1 mM EDTA, 0.5 mM DTT
Protocol: The POP inhibition assays were carried out similarly as recently described ([Hellinger et al., 2015a]; [Retzl et al., 2020]) using a bacterial expressed POP enzyme. Human POP cDNA (accession NM:002726.4) was inserted into a pGEX-6P1 expression vector using the EcoRI and XhoI sites (Genescript, Leiden, Netherlands) and expressed in Escherichia coli (BL21 D3 strain). Protein expression was induced by addition of 0.3–0.5 mM isopropyl-β-D-thiogalactopyranoside (ProteinArk, Rotterdam, Netherlands) at an optical density (OD600) between 0.6 and 0.8 to the bacterial culture and incubated at 25°C under constant shaking. The protein was harvested at an OD600 between 1.4 and 1.5. POP was purified via GST-affinity capture beads. […] The protein concentration was determined with bicinchoninic acid assay (ThermoFisher). […] The protease activity was quantified as fluorescence from the proteolytically cleaved amino-coumarin fluorophore with excitation 380 nm and emission 420 nm on a Biotek Synergy H4 plate reader. The fluorogenic substrate provide elevated fluorescence by the delocalization of electrons after the amide bond cleavage and release of the 7 amino coumarin moiety. […] The percent remaining POP activity was calculated as I = (vi/vo)*100. […]

[5] = Precipitation of the substrate in POP assay; format: physicochemical; conditions: optimized POP assay conditions, tested between 0.766 µM and 300 µM
Protocol: Supplementary Figure S3. POP purification and optimization of the assay system.Human POP wa s expressed in E. coliand purified as functional protease. The purification steps were analyzed using a Coomassie stained protein gel. Purifi ed POP enzyme is shown in lane 7 after site-specific cleavage with PreS cissi on protease and rel ease of the untagg ed protein (A). Different assay conditions were tested to study the effect of buffer sy stems and pH dependency (B,C), the use of organi c solve nts (D), DTT (E) and NaCl (F) concentration on POP enzyme activ ity. For calculation of POP activ ity the slope in the li near range between 5 and 35 mi n of kinetic measurements were used. With the optim ized conditionsZ-Gly-Pro-amino-coumarin concentrations between 0.766 µM and 300 µM were tested in a kinetic measurement and a con centration dependent increase in sig nal was observed. Above 150 µM substrate concentration no further increase in sig nal was measured due to preci pitation of the substra te (G). Al l data are shown as mean of three biologi cal experim ents and error is shown as ±SEM.
(1 picture or pasted object on this page, not shown here)

Compound: O=C(CO)[C@@H]1CCCN1C(=O)[C@@H]1CCCN1C(=O)NCc1ccccc1 [JTP-4819]
clinical outcome (in words) (POP [1]): failed to succeed or provided ambiguous outcomes in their clinical phase

Compound: COc1ccc2cc3[n+](cc2c1OC)CCc1cc2c(cc1-3)OCO2 [berberine]
POP inhibition (in words) (POP [2]): inhibit POP activity

Compound: kalata B1: cyclotide, amongst others in V. tricolor L., Moebius type (cyclo(GLPVCGETCVGGTCNTPGCTCSWPVCTRN); disulfide 14-26, 5-19, 9-21; UniProt P56254 89-117, looked up)
IC50 (POP [2]; POP, ref Hellinger et al., 2015a, read-out: half maximal inhibitory concentration (IC50)): 5.6 µM

Compound: CC[C@H](C)[C@@H]1NC(=O)[C@H](C)NC(=O)[C@H](C)NC(=O)[C@H](CO)NC(=O)[C@H]([C@@H](C)CC)NC(=O)[C@@H]2CSSC[C@@H]3NC(=O)[C@H](C(C)C)NC(=O)[C@H](CCCCN)NC(=O)[C@H](CC(N)=O)NC(=O)[C@H](CCCCN)NC(=O)[C@@H]4CSSC[C@H](NC(=O)[C@H](CO)NC(=O)[C@H](CCC(=O)O)NC(=O)CNC(=O)[C@H](CSSC[C@H](NC(=O)CNC1=O)C(=O)N[C@@H](CO)C(=O)N4)NC(=O)[C@@H]1CCCN1C(=O)[C@H]([C@@H](C)CC)NC(=O)[C@H](C(C)C)NC(=O)CNC(=O)[C@H](CC(=O)O)NC(=O)[C@H](CCCNC(=N)N)NC(=O)[C@H](Cc1ccc(O)cc1)NC3=O)C(=O)N[C@@H](C(C)C)C(=O)N[C@@H](Cc1ccccc1)C(=O)N[C@@H]([C@@H](C)CC)C(=O)N1CCC[C@H]1C(=O)N2 [alca 1] (cyclo(AAIGCSCKNKVCYRDGVIPCGESCVFIPCIS); disulfide 5-20, 7-24, 12-29)
IC50 (human POP [3]): 8.5 ± 5.9 µM | Hill slope (human POP [3]; sigmoidal inhibition curves of isolated peptides, four parameter non-linear regression, mean ± standard deviation, three or five biological experiments, respectively (alca 1, alca 2)): −1.2 ± 0.1

Compound: C[N+]1(C)[C@H]2Cc3cc4c(cc3[C@@H]1Cc1cc3c(cc12)COC3)OCO4 [californidine]
POP inhibition (in words) (POP [2]): inhibit POP activity

Compound: O=c1cc(-c2ccccc2)oc2cc(O)c(O)c(O)c12 [balcalein]
POP inhibition (in words) (POP [2]): inhibit POP activity

Compound: CC[C@H](C)[C@@H]1NC(=O)[C@@H]2CSSC[C@@H]3NC(=O)[C@H](C(C)C)NC(=O)[C@H](CCCCN)NC(=O)[C@H](CC(N)=O)NC(=O)[C@H](CO)NC(=O)[C@@H]4CSSC[C@H](NC(=O)[C@H](CO)NC(=O)[C@H](CCC(=O)O)NC(=O)CNC(=O)[C@H](CSSC[C@H](NC(=O)CNC(=O)[C@H](CC(C)C)NC(=O)[C@H](C(C)C)NC(=O)CNC(=O)[C@H](CO)NC1=O)C(=O)N[C@@H](CO)C(=O)N4)NC(=O)[C@@H]1CCCN1C(=O)[C@H]([C@@H](C)CC)NC(=O)CNC(=O)[C@H](CC(N)=O)NC(=O)[C@H](CCCNC(=N)N)NC(=O)[C@H](Cc1ccc(O)cc1)NC3=O)C(=O)N[C@@H](C(C)C)C(=O)N[C@@H](Cc1ccccc1)C(=O)N[C@@H]([C@@H](C)CC)C(=O)N1CCC[C@H]1C(=O)N2 [alca 2] (cyclo(CGESCVFIPCISGVLGCSCSNKVCYRNGIP); disulfide 1-17, 5-19, 10-24)
IC50 (human POP [3]): 4.4 ± 0.7 µM

K m (human POP [4]): 42.4 µM | Vmax (human POP [4]): 0.00015 µmol/min | substrate concentration above which precipitation of the substrate occurs [5]: Above 150 µM
Compound: Cc1cc(=O)oc2cc(NC(=O)[C@@H]3CCCN3C(=O)CNC(=O)OCc3ccccc3)ccc12 [Z-Gly-Pro-amino-coumarin] (Cbz-Gly-Pro-{AMC})
